Source: patent US20230057984A1, “NORMALIZATION OF CULTURE OF CORNEAL ENDOTHELIAL CELLS” (KYOTO PREFECTURAL PUBLIC UNIVERSITY CORPORATION, priority 2011, published 2023)

Legend:
HCEC = assay: Consecutive treatments of cultured HCEC over several passages, observation of harmful effects; conditions: even after several passages
[1] = tested on: Human corneal endothelial cells; assay: Culture of human corneal endothelial cells with SB431542, cell form (Example 5); format: cell-based; conditions: HCEC, base culture medium with SB431542 1 μmol/L; SB431542-free cells transformed in a fibroblastic manner, multi-layered
Protocol: • Cynomolgus monkey corneal endothelial cells (MCEC; source of supply and culturing method): the MCECs were cultured by the improved-type protocol described previously [Koizumi N, et al. (2007) Invest Ophthalmol Vis Sci 48: 4519-4526], [Li W, et al. (2007) Invest Ophthalmol Vis Sci 48: 614-620]. Briefly speaking, eyeballs of cynomolgus monkeys, which were humanely killed for another purpose, were purchased (Nissei Bilis Co., Ltd., Ohtsu, Japan and Keari Co., Ltd., Wakayama, Japan) (the method is described above). The Descemet's membrane including corneal endothelial cells were exfoliated, and the corneal endothelial cells were mechanically exfoliated together with basement membranes, followed by treatment using dispase or collagenase (ROCHE catalog number: 10 103 586 001) and then primary culture. Typically, treatment was performed using 1 mg/mL collagenase A (Roche Applied Science, Penzberg, Germany) at 37° C. for 2 hours. For the culture medium, DMEM (INVITROGEN catalog number 12320) was used with 10% FBS (BIOWEST, catalog number: S1820-500) and 2 ng/ml basic FGF (INVITROGEN, catalog number: 13256-029) added thereto. […] In addition, after the cells were fixed, immunostaining was performed using ZO-1, Na^+/K^+-ATPase as a function-associated marker, followed by observation through a fluorescence microscope. […]

[2] = tested on: Human corneal endothelial cells; assay: Quantitative PCR of collagen type 1 and fibronectin in HCEC; format: cell-based; conditions: SB431542 1 μM, normalized with GAPDH, relative to control
Protocol: Amplified DNA fragments were electrophoresed with 1.5% agarose gel (Nacalai Tesque, catalog number:01149-76), and detected by staining with ethidium bromide (Nacalai Tesque, catalog number: 14603-51). • Quantitative PCR was performed using the following TaqMan (registered trademark) (Invitrogen) primers. collagen type 1: Hs00164004_m1; fibronectin: Hs01549976_m1; GAPDH: Hs00266705_g1. The PCR was performed using a StepOne™ (Applied Biosystems) real-time PCR system. The GAPDH was used as an internal standard.

- harmful effects with regard to the forms or functions (HCEC): not seen any clear, harmful effects
SMILES: NC(=O)c1ccc(-c2nc(-c3ccc4c(c3)OCO4)c(-c3ccccn3)[nH]2)cc1 [SB431542]
- cell form [1]: a layer of cells with a small difference in size of a polygonal shape
- expression of collagen type 1 at mRNA level (quantitative PCR) [2]: significantly decreased
- expression of fibronectin at mRNA level (quantitative PCR) [2]: significantly decreased
